The test system of this test is Plasmodium berghei. As to the kind of experiment: Luciferase/luciferin-expressing antifolate-resistant parasites were used to infect a culture of HepG2 cells that were pre-incubated with compounds. Infected hepatocytes emit light due to the luciferase reaction. Assay results are presented as the percent inhibition of light emission compared to control. […]. The class given is functional. Particulars: sporozoite; for IC90: read-out: LUCIFERASE INFECTION ASSAY - IC90.

Setting [1] is: read-out: LUCIFERASE INFECTION ASSAY - IC50.

The text below walks through data of ChEMBL document CHEMBL4483862, “Open-source discovery of chemical leads for next-generation chemoprotective antimalarials” (2018).

The term IC50 denotes the concentration that inhibits the measured activity by half. By IC90 is commonly meant the concentration needed for an effect of 90%. Take `CC1CC(NC(=O)c2cc3c(=O)n4ccccc4nc3n2C)CC(C)(C)C1` (configuration not stated): the IC90 worked out at 2.74 µM. The IC50 (PBLUC_HILL_SLOPE 172, PBLUC_R_SQUARED 0.0501, read-out: LUCIFERASE INFECTION ASSAY - IC50) came to 2.7 µM.
On to `COc1ccccc1N(Cc1ccccc1)S(=O)(=O)c1cccc(C(=O)NC2CC(C)(C)NC(C)(C)C2)c1`, for which the 90% effect concentration (IC90) worked out at 9.9 µM. Under “PBLUC_HILL_SLOPE 145, PBLUC_R_SQUARED 0.235, read-out: LUCIFERASE INFECTION ASSAY - IC50”, the concentration for half-maximal inhibition (IC50) is 9.75 µM.
Regarding `NC(Cc1ccc(F)cc1)c1csc(Nc2ccc(C(F)(F)F)cn2)n1` (configuration not stated), the 90% effect concentration (IC90) is 5.98 µM. Besides, the IC50 (PBLUC_HILL_SLOPE 202, PBLUC_R_SQUARED 0.785, read-out: LUCIFERASE INFECTION ASSAY - IC50) stood at 5.91 µM.
On to `COc1cccc(Nc2nc(C(N)Cc3ccc(C(F)(F)F)cc3)cs2)n1` (configuration not stated), for which the IC90 is 3.58 µM. Where the note is “PBLUC_HILL_SLOPE 179, PBLUC_R_SQUARED 0.233, read-out: LUCIFERASE INFECTION ASSAY - IC50”, the IC50 stood at 3.53 µM.
For `C=CCNc1nc(Nc2ccc(OC)c(OC)c2)c2sc(-c3ccccc3)cc2n1`, the IC90 was over 7.88 µM. Moreover, the IC50 under setting [1] is 3.61 µM.
For `CCNC(=O)C1CCCN(Cc2cc(C(F)(F)F)ccc2Cl)CC1` (configuration not stated), the IC90 came to 3.4 µM. Also, for the setting “PBLUC_HILL_SLOPE 383, PBLUC_R_SQUARED 0.415, read-out: LUCIFERASE INFECTION ASSAY - IC50”, the IC50 stood at 3.38 µM.
For `c1csc(-c2cnc3sc(NCC4CCOCC4)nn23)c1`, the IC90 is over 10.3 µM. The concentration for half-maximal inhibition (IC50) under setting [1] is over 10.3 µM.
Regarding `CN(C)c1cccc(-c2cnc3sc(NCc4ccncc4)nn23)c1`, the IC90 is over 9.42 µM. Moreover, under setting [1], the IC50 was over 9.42 µM.
In the case of `CCCn1c(N)c(C(=O)CN(C)Cc2cccc(Cl)c2Cl)c(=O)[nH]c1=O`, the concentration for an effect of 90% (IC90) was determined as 3.38 µM. Also, the IC50 (PBLUC_HILL_SLOPE 149, PBLUC_R_SQUARED 0.302, read-out: LUCIFERASE INFECTION ASSAY - IC50) was determined as 3.33 µM.
In the case of `COc1ccc(-c2cnc3sc(NCCc4ccc(S(N)(=O)=O)cc4)nn23)cn1`, the IC90 was over 7.67 µM. The IC50 under setting [1] was over 7.67 µM.
In the case of `Cc1ccc(CNc2nc(NCc3cccs3)nc3ccsc23)c(C)c1`, the IC90 came out at 1.63 µM. In addition, the IC50 (PBLUC_HILL_SLOPE 356, PBLUC_R_SQUARED 0.443, read-out: LUCIFERASE INFECTION ASSAY - IC50) was determined as 1.62 µM.
Turning to `CN(C)c1cccc(-c2cnc3sc(NCCc4ccncc4)nn23)c1`, the IC90 is over 9.05 µM. In addition, the IC50 under setting [1] is over 9.05 µM.
Turning to `CN(C)c1ccccc1-c1cnc2sc(NC3CCC(O)CC3)nn12` (configuration not stated), the IC90 was over 9.23 µM. In addition, the IC50 under setting [1] is 8.17 µM.
In the case of `COc1ccc(C(N)c2csc(NC(=O)NC(c3ccccc3)c3ccccc3)n2)cc1` (configuration not stated), the IC90 was determined as 3.36 µM. Moreover, the IC50 (PBLUC_HILL_SLOPE 167, PBLUC_R_SQUARED 0.12, read-out: LUCIFERASE INFECTION ASSAY - IC50) amounted to 3.31 µM.
Consider `Cc1nc(-c2cccc(NC(=O)c3ccc(OC(F)F)cc3)c2)[nH]c1C`, for which the concentration for an effect of 90% (IC90) worked out at 2.68 µM. Further, the IC50 (PBLUC_HILL_SLOPE 207, PBLUC_R_SQUARED 0.671, read-out: LUCIFERASE INFECTION ASSAY - IC50) was found to be 2.66 µM.
For `Cc1ccc(C)c(-c2csc(NC(=O)CCNC(=O)c3ccsc3)n2)c1`, the 90% effect concentration (IC90) came to 5.37 µM. For the same compound, the IC50 (PBLUC_HILL_SLOPE 433, PBLUC_R_SQUARED 0.479, read-out: LUCIFERASE INFECTION ASSAY - IC50) was determined as 5.35 µM.
Take `CC(=O)NCCC(=O)N(Cc1ccccc1)c1nc2c(C(C)C)cccc2s1`: the IC90 amounted to 6.02 µM. Besides, for the setting “PBLUC_HILL_SLOPE 286, PBLUC_R_SQUARED 0.442, read-out: LUCIFERASE INFECTION ASSAY - IC50”, the IC50 was found to be 5.98 µM.
For `CNc1nc(NCc2cccc(OC)c2)c2sc(-c3ccccc3)cc2n1`, the IC90 is over 8.77 µM. The IC50 under setting [1] was over 8.77 µM.
For `COc1ccc2c(C)cc3nnc(SCCOc4ccccc4F)n3c2c1`, the 90% effect concentration (IC90) is 5.11 µM. Further, the IC50 (PBLUC_HILL_SLOPE 752, PBLUC_R_SQUARED 0.219, read-out: LUCIFERASE INFECTION ASSAY - IC50) was determined as 5.09 µM.
Regarding `NC(c1csc(Nc2cc(NCc3ccco3)ncn2)n1)C1CCCCC1` (configuration not stated), the IC90 is over 8.58 µM. Further, the IC50 under setting [1] is over 8.58 µM.
Regarding `CCN(CC)CCNC(=O)c1ccc(Nc2ccn3nc(-c4ccc(Cl)cc4)cc3n2)cc1`, the IC90 is over 7.13 µM. For the same compound, under setting [1], the IC50 is over 7.13 µM.
With `Cc1cccc2sc(N(Cc3ccccc3)C(=O)CN3CCN(CC(=O)N4CCCC4)CC3)nc12`, the IC90 was 6.71 µM. The concentration for half-maximal inhibition (IC50) (PBLUC_HILL_SLOPE 173, PBLUC_R_SQUARED 0.447, read-out: LUCIFERASE INFECTION ASSAY - IC50) was found to be 6.63 µM.
Consider `CCOc1cc(/C=C(/C(=O)c2ccc(Br)cc2)c2nc3ccccc3[nH]2)ccc1O`, for which the IC90 turned out to be 4.59 µM. Besides, the IC50 (PBLUC_HILL_SLOPE 158, PBLUC_R_SQUARED 0.0148, read-out: LUCIFERASE INFECTION ASSAY - IC50) was 4.53 µM.
As to `Clc1ccc(-c2cnc3sc(NCCc4ccncc4)nn23)cc1`, the IC90 is over 9.27 µM. Further, under setting [1], the IC50 was over 9.27 µM.
On to `CCc1sc(C(=O)Nc2ccc(F)c(Cl)c2)cc1C`, for which the IC90 was determined as 8.57 µM. Further, where the note is “PBLUC_HILL_SLOPE 228, PBLUC_R_SQUARED 0.104, read-out: LUCIFERASE INFECTION ASSAY - IC50”, the concentration for half-maximal inhibition (IC50) came to 8.49 µM.
For `OC1CCC(Nc2nn3c(-c4ccc5ccccc5c4)cnc3s2)CC1` (configuration not stated), the IC90 is over 9.05 µM. The IC50 under setting [1] was over 9.05 µM.
For the compound `CCn1nnc2cc(C(=O)Nc3cc(C(F)(F)F)ccc3N(C)C)ccc21`, the IC90 was found to be 7.74 µM. Besides, the IC50 (PBLUC_HILL_SLOPE 154, PBLUC_R_SQUARED 0.344, read-out: LUCIFERASE INFECTION ASSAY - IC50) amounted to 7.63 µM.
`CSc1nc(=O)nc(-c2ccc(Cl)cc2)[nH]1`: the IC90 was over 13 µM. For the same compound, under setting [1], the IC50 is over 13 µM.
As for `OCCCNc1nn2c(-c3ccccc3Cl)cnc2s1`, the IC90 is over 10.7 µM. Besides, under setting [1], the concentration for half-maximal inhibition (IC50) was over 10.7 µM.
Turning to `CC(C)c1ccc(-c2cnc3sc(NCc4cccnc4)nn23)cc1`, the IC90 is over 9.44 µM. Under setting [1], the IC50 is over 9.44 µM.
For the compound `CC(C)C(N)c1csc(NC(=O)c2cc(C(C)(C)C)nn2Cc2ccccc2)n1` (configuration not stated), the IC90 turned out to be 3.46 µM. Besides, the IC50 (PBLUC_HILL_SLOPE 594, PBLUC_R_SQUARED 0.291, read-out: LUCIFERASE INFECTION ASSAY - IC50) stood at 3.45 µM.
As for `O=C(Nc1ccc(OC(F)(F)F)cc1)Nc1ccc2nc(-c3ccco3)nn2c1`, the IC90 turned out to be 7.51 µM. Moreover, the IC50 (PBLUC_HILL_SLOPE 672, PBLUC_R_SQUARED 0.263, read-out: LUCIFERASE INFECTION ASSAY - IC50) stood at 7.48 µM.
For `CC(C)(C)c1cc(=O)n(-c2nc3ccc(Cl)cc3s2)[nH]1`, the IC90 is over 10.7 µM. Besides, the IC50 under setting [1] is over 10.7 µM.
Regarding `CC(C)c1ccc(-c2cnc3sc(NCCCO)nn23)cc1`, the IC90 is over 10.4 µM. Under setting [1], the IC50 was over 10.4 µM.
`CC(C)CC(N)c1csc(NC(=O)Nc2ccc(F)c(Cl)c2)n1` (configuration not stated): the IC90 was over 9.25 µM. Besides, the IC50 under setting [1] was over 9.25 µM.
In the case of `CC(C)(C)OC(=O)N[C@@H](Cc1ccccc1)c1n[nH]c(=S)n1CC1CCCO1` (some centres not stated), the 90% effect concentration (IC90) is over 8.16 µM. Under setting [1], the IC50 was over 8.16 µM.
Take `c1ccc(-c2cnc3sc(NCCc4ccncc4)nn23)cc1`: the IC90 is over 10.3 µM. For the same compound, the IC50 under setting [1] was over 10.3 µM.
On to `O=C(Nc1cccc(F)c1)Nc1ccc2nc(-c3cccs3)nn2c1`, for which the IC90 was found to be 4.34 µM. Further, the IC50 (PBLUC_HILL_SLOPE 208, PBLUC_R_SQUARED 0.19, read-out: LUCIFERASE INFECTION ASSAY - IC50) was found to be 4.29 µM.
For the compound `NC(Cc1ccccc1)c1csc(Nc2ccc(-c3ccccc3)nn2)n1` (configuration not stated), the IC90 was determined as 5.82 µM. In addition, the IC50 (PBLUC_HILL_SLOPE 170, PBLUC_R_SQUARED 0.669, read-out: LUCIFERASE INFECTION ASSAY - IC50) was determined as 5.74 µM.
For the compound `COc1cc(OC)cc(C(=O)Nc2nc(C(N)C3CCCCC3)cs2)c1` (configuration not stated), the IC90 worked out at 5.41 µM. Besides, the half-maximal inhibitory concentration (IC50) under setting [1] came out at 5.25 µM.
`CN(C)c1cccc(-c2cnc3sc(NCc4cccnc4)nn23)c1`: the IC90 was over 9.42 µM. In addition, the IC50 under setting [1] is over 9.42 µM.
As to `CC(C)c1ccc2c(c1)/C(=N/NC(=O)c1ccccc1F)C(=O)N2`, the IC90 is 0.084 µM. Further, the IC50 (PBLUC_HILL_SLOPE 280, PBLUC_R_SQUARED 0.522, read-out: LUCIFERASE INFECTION ASSAY - IC50) was 0.0833 µM.
For the compound `CN(C)c1cccc(-c2cnc3sc(NCCCO)nn23)c1`, the IC90 was over 10.4 µM. Also, under setting [1], the IC50 was over 10.4 µM.
In the case of `OC1CCC(Nc2nn3c(-c4ccc(F)c(Cl)c4)cnc3s2)CC1` (configuration not stated), the IC90 was over 9 µM. Also, under setting [1], the IC50 was over 9 µM.
On to `FC(F)(F)c1cccc(-c2cnc3sc(NCCc4ccncc4)nn23)c1`, for which the 90% effect concentration (IC90) is over 8.47 µM. In addition, under setting [1], the IC50 was over 8.47 µM.
For the compound `OCCCNc1nn2c(-c3cccc(F)c3)cnc2s1`, the IC90 was over 11.3 µM. Moreover, the IC50 under setting [1] is over 11.3 µM.
As to `COc1ccc(N2C(=N)C(c3nc4ccccc4s3)C(=O)C2c2ccccc2)cc1` (configuration not stated), the IC90 worked out at 4.06 µM. Further, the IC50 (PBLUC_HILL_SLOPE 428, PBLUC_R_SQUARED 0.387, read-out: LUCIFERASE INFECTION ASSAY - IC50) turned out to be 4.04 µM.
Turning to `C=CCNC(=S)N1CCc2c([nH]c3ccccc23)C1C(F)(F)F` (configuration not stated), the 90% effect concentration (IC90) was over 9.72 µM. Under setting [1], the IC50 was over 9.72 µM.
Turning to `FC(F)(F)c1ccccc1NC(=S)N1CCCN(c2nc3ccc(Cl)cc3s2)CC1`, the 90% effect concentration (IC90) worked out at 2.54 µM. For the same compound, under setting [1], the IC50 amounted to 2.32 µM.
For the compound `CC(C)CCNCC(O)CON=C1c2ccccc2-c2ccccc21` (configuration not stated), the IC90 was over 10 µM. Besides, the IC50 under setting [1] was over 10 µM.
`CCc1cc2c(Sc3nnc(N)s3)ncnc2s1`: the IC90 was over 11.2 µM. The IC50 under setting [1] was over 11.2 µM.
